# Measured values as given in ChEMBL document CHEMBL5357027, “Annonaceous Acetogenins Synergistically Inhibit Hepatocellular Carcinoma with Sorafenib” (J Nat Prod, 2024).
# Activity calls are given as the source filed them. The calls are words filed in the database; no cut-off is given here.
# How the values were obtained:
# [1] = system: HepG2; assay: Cytotoxicity against human HepG2 cells assessed as cell growth inhibition incubated for 48 hrs by MTT assay; assay type: functional, cell-based; settings: HepG2, 48 h
# [2] = system: MHCC97H; assay: Cytotoxicity against human MHCC97H cells assessed as cell growth inhibition incubated for 48 hrs by MTT assay; assay type: functional, cell-based
# [3] = system: Huh-7; assay: Cytotoxicity against human Huh-7 cells assessed as cell growth inhibition incubated for 48 hrs by MTT assay; assay type: functional, cell-based; settings: Huh-7, 48 h
# [4] = system: HepG2; assay: Synergistic cytotoxicity against human HepG2 cells assessed as cell growth inhibition by measuring synergy score at 1 to 16 uM incubated for 48 hrs in presence of sorafenib at 1 to 16 uM by MTT assay; assay type: functional; settings: dose 1-16 µM
# [5] = system: HCCLM3; assay: Synergistic cytotoxicity against human HCCLM3 cells assessed as cell growth inhibition by measuring synergy score at 1 to 16 uM incubated for 48 hrs in presence of sorafenib at 1 to 16 uM by MTT assay; assay type: functional; settings: dose 1-16 µM
# [6] = system: HCCLM3; assay: Cytotoxicity against human HCCLM3 cells assessed as cell growth inhibition incubated for 48 hrs by MTT assay; assay type: functional, cell-based; settings: HCCLM3, 48 h
# [7] = system: Huh-7; assay: Synergistic cytotoxicity against human Huh-7 cells assessed as cell growth inhibition by measuring synergy score at 1 to 16 uM incubated for 48 hrs in presence of sorafenib at 1 to 16 uM by MTT assay; assay type: functional; settings: dose 1-16 µM
# [8] = system: MHCC97H; assay: Synergistic cytotoxicity against human MHCC97H cells assessed as cell growth inhibition by measuring synergy score at 1 to 16 uM incubated for 48 hrs in presence of sorafenib at 1 to 16 uM by MTT assay; assay type: functional; settings: dose 1-16 µM
# [9] = system: HCCLM3; assay: Inhibition of mitochondrial respiratory chain complex I in human HCCLM3 incubated for 24 hrs; assay type: cell-based
# [10] = system: MHCC97H; assay: Inhibition of mitochondrial function in human MHCC97H cells assessed as reduction in ATP production at 8 uM incubated for 48 hrs; assay type: functional, cell-based
# [11] = system: HCCLM3; assay: Induction of apoptosis in human HCCLM3 cells assessed as viable cells at 4 uM incubated for 48 hrs by Annexin V/FITC-PI staining based flow cytometry (reference value: 96.55%); assay type: functional; settings: read-out: Activity
# [12] = system: HCCLM3; assay: Induction of apoptosis in human HCCLM3 cells assessed as viable cells at 4 uM incubated for 48 hrs in presence of 4uM sorafenib by Annexin V/FITC-PI staining based flow cytometry (reference value: 96.55%); assay type: functional; settings: read-out: Activity
# [13] = system: MHCC97H; assay: Synergistic inhibition of mitochondrial function in human MHCC97H cells assessed as reduction in intracellular ATP level at 8 uM incubated for 48 hrs in presence of 16 uM sorafenib; assay type: functional, cell-based
# [14] = system: HCCLM3; assay: Induction of apoptosis in human HCCLM3 cells assessed as apoptotic ratio at 4 uM incubated for 48 hrs in presence of 4uM sorafenib by Annexin V/FITC-PI staining based flow cytometry relative to control; assay type: functional
# [15] = system: HepG2; assay: Synergistic inhibition of mitochondrial function in human HepG2 cells assessed as reduction in intracellular ATP level at 8 uM incubated for 48 hrs in presence of 16 uM sorafenib; assay type: functional, cell-based
# [16] = system: HCCLM3; assay: Induction of apoptosis in human HCCLM3 cells assessed as necrotic cells at 4 uM incubated for 48 hrs in presence of 4uM sorafenib by Annexin V/FITC-PI staining based flow cytometry (reference value: 3.33%); assay type: functional
# [17] = system: HCCLM3; assay: Inhibition of mitochondrial function in human HCCLM3 cells assessed as reduction in ATP production at 8 uM incubated for 48 hrs; assay type: functional, cell-based
# [18] = system: HCCLM3; assay: Induction of apoptosis in human HCCLM3 cells assessed as early apoptotic cells at 4 uM incubated for 48 hrs in presence of 4uM sorafenib by Annexin V/FITC-PI staining based flow cytometry (reference value: 0.05%); assay type: functional
# [19] = system: HCCLM3; assay: Induction of apoptosis in human HCCLM3 cells assessed as late apoptotic cells at 4 uM incubated for 48 hrs in presence of 4uM sorafenib by Annexin V/FITC-PI staining based flow cytometry (reference value: 0.07%); assay type: functional
# [20] = system: HCCLM3; assay: Induction of apoptosis in human HCCLM3 cells assessed as late apoptotic cells at 4 uM incubated for 48 hrs by Annexin V/FITC-PI staining based flow cytometry (reference value: 0.07%); assay type: functional
# [21] = system: Huh-7; assay: Inhibition of mitochondrial function in human Huh-7 cells assessed as reduction in ATP production at 8 uM incubated for 48 hrs; assay type: functional, cell-based
# [22] = system: Huh-7; assay: Synergistic inhibition of mitochondrial function in human Huh-7 cells assessed as reduction in intracellular ATP level at 8 uM incubated for 48 hrs in presence of 16 uM sorafenib; assay type: functional, cell-based
# [23] = system: HCCLM3; assay: Synergistic inhibition of mitochondrial function in human HCCLM3 cells assessed as reduction in intracellular ATP level at 8 uM incubated for 48 hrs in presence of 16 uM sorafenib; assay type: functional, cell-based
# [24] = system: HCCLM3; assay: Induction of apoptosis in human HCCLM3 cells assessed as necrotic cells at 4 uM incubated for 48 hrs by Annexin V/FITC-PI staining based flow cytometry (reference value: 3.33%); assay type: functional
# [25] = system: HepG2; assay: Inhibition of mitochondrial function in human HepG2 cells assessed as reduction in ATP production at 8 uM incubated for 48 hrs; assay type: functional, cell-based
# [26] = system: HCCLM3; assay: Induction of apoptosis in human HCCLM3 cells assessed as early apoptotic cells at 4 uM incubated for 48 hrs by Annexin V/FITC-PI staining based flow cytometry (reference value: 0.05%); assay type: functional
# [27] = Toxicity in nude mouse xenografted with human HCCLM3 cells assessed as decrease in body weight at 4 to 8 mg/kg, PO measured every other day for 21 days; assay type: organism-based; settings: in vivo, 504 h, dose 4-8 mg/kg, time 21 day
# [28] = Toxicity in nude mouse xenografted with human HCCLM3 cells assessed as decrease in body weight at 1 to 8 mg/kg, PO in presence of sorafenib measured every other day for 21 days; assay type: organism-based; settings: in vivo, 504 h, dose 1-8 mg/kg, time 21 day
# [29] = Toxicity in nude mouse xenografted with human HCCLM3 cells assessed as heart damage at 4 to 8 mg/kg, PO measured for 21 days by H and E staining based; assay type: organism-based; settings: in vivo, 504 h, dose 4-8 mg/kg, time 21 day
# [30] = Toxicity in nude mouse xenografted with human HCCLM3 cells assessed as liver damage at 1 to 8 mg/kg, PO in presence of sorafenib measured for 21 days by H and E staining based analysis; assay type: organism-based; settings: in vivo, 504 h, dose 1-8 mg/kg, time 21 day
# [31] = Toxicity in nude mouse xenografted with human HCCLM3 cells assessed as spleen damage at 1 to 8 mg/kg, PO in presence of sorafenib measured for 21 days by H and E staining based analysis; assay type: organism-based; settings: in vivo, 504 h, dose 1-8 mg/kg, time 21 day
# [32] = Toxicity in nude mouse xenografted with human HCCLM3 cells assessed as kidney damage at 4 to 8 mg/kg, PO measured for 21 days by H and E staining based analysis; assay type: organism-based; settings: in vivo, 504 h, dose 4-8 mg/kg, time 21 day
# [33] = Toxicity in nude mouse xenografted with human HCCLM3 cells assessed as liver damage at 4 to 8 mg/kg, PO measured for 21 days by H and E staining based analysis; assay type: organism-based; settings: in vivo, 504 h, dose 4-8 mg/kg, time 21 day
# [34] = system: HCCLM3; assay: Synergistic antitumor activity against human HCCLM3 cells xenografted in nude mouse assessed as induction of aPOptosis in tumor at 4 to 8 mg/kg, PO in presence of 32 mg/kg sorafenib and measured for 21 days by tunel staining based immunohistochemical analysis; assay type: functional, organism-based; settings: dose 4-8 mg/kg, time 21.0 day
# [35] = Toxicity in nude mouse xenografted with human HCCLM3 cells assessed as lung damage at 4 to 8 mg/kg, PO measured for 21 days by H and E staining based analysis; assay type: organism-based; settings: in vivo, 504 h, dose 4-8 mg/kg, time 21 day
# [36] = Toxicity in nude mouse xenografted with human HCCLM3 cells assessed as lung damage at 1 to 8 mg/kg, PO in presence of sorafenib measured for 21 days by H and E staining based analysis; assay type: organism-based; settings: in vivo, 504 h, dose 1-8 mg/kg, time 21 day
# [37] = system: HCCLM3; assay: Synergistic antitumor activity against human HCCLM3 cells xenografted in nude mouse assessed as decrease in tumor weight at 4 to 8 mg/kg, PO in presence of 32 mg/kg sorafenib measured every other day for 21 days; assay type: functional, organism-based; settings: dose 4-8 mg/kg, time 21.0 day
# [38] = Toxicity in nude mouse xenografted with human HCCLM3 cells assessed as kidney damage at 1 to 8 mg/kg, PO in presence of sorafenib measured for 21 days by H and E staining based analysis; assay type: organism-based; settings: in vivo, 504 h, dose 1-8 mg/kg, time 21 day
# [39] = Toxicity in nude mouse xenografted with human HCCLM3 cells assessed as heart damage at 1 to 8 mg/kg, PO in presence of sorafenib measured for 21 days by H and E staining based; assay type: organism-based; settings: in vivo, 504 h, dose 1-8 mg/kg, time 21 day
# [40] = system: HCCLM3; assay: Synergistic antitumor activity against human HCCLM3 cells xenografted in nude mouse assessed as decrease in tumor volume at 4 to 8 mg/kg, PO in presence of 32 mg/kg sorafenib measured every other day for 21 days; assay type: functional, organism-based; settings: dose 4-8 mg/kg, time 21.0 day
# [41] = system: HCCLM3; assay: Antitumor activity against human HCCLM3 cells xenografted in nude mouse assessed as decrease in tumor volume at 4 to 8 mg/kg, PO measured every other day for 21 days; assay type: functional, organism-based; settings: dose 4-8 mg/kg, time 21.0 day
# [42] = Toxicity in nude mouse xenografted with human HCCLM3 cells assessed as spleen damage at 4 to 8 mg/kg, PO measured for 21 days by H and E staining based analysis; assay type: organism-based; settings: in vivo, 504 h, dose 4-8 mg/kg, time 21 day
smiles,measurement,setting,value
CCCCCCCCCC[C@@H](O)[C@H](O)C[C@@H](O)[C@H]1CC[C@H](CCCCCCCCCC[C@@H](O)CC2=C[C@H](C)OC2=O)O1,IC50,[1],> 50 µM
same,IC50,[2],> 50 µM
same,IC50,[3],> 50 µM
same,Activity,[4],2.7
same,Activity,[5],2.7
same,IC50,[6],> 50 µM
same,Activity,[7],2.7
same,Activity,[8],2.7
same,inhibition,[9],Active
CCCCCCCCCC[C@H](O)[C@@H](O)C[C@H](O)[C@@H]1CC[C@@H](CCCCCCCCCC[C@@H](O)CC2=C[C@H](C)OC2=O)O1,IC50,[1],> 50 µM
same,inhibition,[10],Active
same,IC50,[2],> 50 µM
same,viability at 4 µM,[11],97.2%
same,viability at 4 µM,[12],80.5%
same,inhibition,[13],Active
same,IC50,[3],> 50 µM
same,Activity,[4],3.7
same,Activity,[14],11.6%
same,inhibition,[15],Active
same,Activity,[5],13.9
same,Activity,[16],4.44%
same,inhibition,[17],Active
same,Activity,[18],8.66%
same,Activity,[19],6.45%
same,Activity,[20],0.17%
same,IC50,[6],> 50 µM
same,Activity,[7],7.1
same,inhibition,[21],Active
same,inhibition,[22],Active
same,Activity,[23],Active
same,Activity,[24],1.36%
same,Activity,[8],17
same,inhibition,[25],Active
same,inhibition,[9],Active
same,Activity,[26],1.27%
CCCCCCCCCCCC[C@@H](O)[C@H]1CC[C@H]([C@H](O)CCCC[C@@H](O)CCCCC[C@@H](O)CC2=C[C@H](C)OC2=O)O1,IC50,[1],7.4 µM
same,inhibition,[10],Active
same,IC50,[2],7.4 µM
same,viability at 4 µM,[11],93.6%
same,viability at 4 µM,[12],73.8%
same,inhibition,[13],Active
same,Activity,[27],Non-Toxic
same,Activity,[28],Non-Toxic
same,IC50,[3],7.4 µM
same,Activity,[4],4.1
same,Activity,[14],18.5%
same,Activity,[29],Non-Toxic
same,inhibition,[15],Active
same,Activity,[30],Non-Toxic
same,Activity,[5],12.1
same,Activity,[16],5.02%
same,Activity,[31],Non-Toxic
same,inhibition,[17],Active
same,Activity,[32],Non-Toxic
same,Activity,[33],Non-Toxic
same,Activity,[18],17.91%
same,Activity,[34],Active
same,Activity,[19],3.24%
same,Activity,[20],1.46%
same,IC50,[6],7.4 µM
same,Activity,[7],1.6
same,inhibition,[21],Active
same,Activity,[35],Non-Toxic
same,Activity,[36],Non-Toxic
same,inhibition,[22],Active
same,Activity,[37],Active
same,Activity,[23],Active
same,Activity,[38],Non-Toxic
same,Activity,[24],3.24%
same,Activity,[8],0.7
same,Activity,[39],Non-Toxic
same,Activity,[40],Active
same,inhibition,[25],Active
same,inhibition,[9],Active
same,Activity,[41],Active
same,Activity,[42],Non-Toxic
same,Activity,[26],1.7%
CCCCCCCCCCCC[C@@H](O)[C@H]1CC[C@H]([C@H](O)CCCCC(=O)CCCCC[C@@H](O)CC2=C[C@H](C)OC2=O)O1 [ANNONACINONE],IC50,[1],15.5 µM
same,IC50,[2],15.5 µM
same,IC50,[3],15.5 µM
same,Activity,[4],3.4
same,Activity,[5],3.4
same,IC50,[6],15.5 µM
same,Activity,[7],3.4
same,Activity,[8],3.4
same,inhibition,[9],Active
